The values below come from patent US10660967B2, “Curcumin conjugates and methods of use thereof” (priority 2016, dated 2020).

Like-named read-outs stand apart in the source and are kept apart here.

Series [1] relates to PHA-stimulated splenocytes. Description: Proliferative response of PHA-stimulated splenocytes (MTT assay). The format is cell-based. To be noted: PHA 5 μg/ml, 72 hr; compounds at 5 μM (method says 10 μM); ratio of O.D. versus vehicle control. The essentials:
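Freshly prepared splenocytes (1×10^6 cells/well) were cultured for 72 h at 37° C with compound at 10 μM final, with or without PHA (5 μg/ml). Viability was read by MTT (4 h), with absorbance at 570 nm against 690 nm reference. Stimulation index is the OD ratio of treated versus vehicle cultures.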

Series [2] relates to lipopolysaccharide-stimulated peritoneal macrophages. As to the kind of experiment: Production of nitric oxide by lipopolysaccharide-stimulated peritoneal macrophages (Greiss reagent). The format is cell-based. On the set-up: Potency (%): % inhibition of nitric oxide production relative to lipopolysaccharide-stimulated macrophages: concentration or dose not given beside the values. The following applies: LPS-stimulated peritoneal macrophages; for Nitric oxide (nitrite) concentration, μM (average ± SD): 24 h, nitrite by Greiss reagent. The essentials:
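Macrophages in nitrite-free medium with 0.1% BSA were stimulated with LPS at 0.5–10 ng/ml, some wells also receiving epinephrine, norepinephrine or dopamine at […], for 24 h at 37° C. Nitrite in supernatants was measured with Greiss reagent, 15 min at room temperature, absorbance 532 nm.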

Series [3] has as its system Salmonella typhi ATCC19430. Description: Antimicrobial MIC, agar dilution. The format is cell-based. To be noted: Salmonella enterica, read-out: Minimum inhibitory concentration (MIC).
Series [4] concerns HCT116 (colon) carcinoma cell line. As to the kind of experiment: Anti-tumor properties, MTT. The format is cell-based. The following applies: Homo sapiens, HCT-116; read-out: IC50 (μM) HCT116 (colon). The essentials:
(§1)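 Cells seeded at 10×10^3 per well for 24 h, then exposed to compound in serum-free medium (final up to 100 μM, 0.5% DMSO vehicle) for 72 h in triplicate. Viability by MTT reduction (4 h, SDS solubilised), absorbance 595 nm/ref 620 nm; IC50 from survival curves.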

In series [5] the test system is HepG2 (hepatocellular) carcinoma cell line. As to the kind of experiment: Anti-tumor properties, MTT. The following applies: Homo sapiens, HepG2; read-out: IC50 (μM) HepG2 (liver). The format is cell-based. The essentials: as §1
For series [6], the system named is MCF7 (breast) carcinoma cell line. As to the kind of experiment: Anti-tumor properties, MTT. The format is cell-based. The following applies: Homo sapiens, MCF7; read-out: IC50 (μM) MCF7 (breast). The essentials:
as §1

Series [7] deals with A-549 (lung) carcinoma cell line. Description: Anti-tumor properties, MTT. The following applies: Homo sapiens, A549. The format is cell-based.
Series [8] deals with PC3 (prostate) carcinoma cell line. Description: Anti-tumor properties, MTT. The format is cell-based. The following applies: Homo sapiens.
Series [9] has as its system Staphylococcus aureus ATCC25923. Description: Antimicrobial MIC, agar dilution.
Series [10] deals with Streptococcus pyogenes ATCC19615. Description: Antimicrobial MIC, agar dilution.
The test system of series [11] is Pseudomonas aeruginosa ATCC27853. Description: Antimicrobial MIC, agar dilution.
The subject of series [12] is Candida albicans (local isolate). As to the kind of experiment: Antimicrobial MIC, agar dilution. To be noted: Candida albicans, read-out: Minimum inhibitory concentration (MIC).
In series [13] the test system is gastric mucosa. Description: Ulcerogenic liability (ulcer index). The format is in vivo, albino mice. To be noted: orally, three successive days, 10 mg/kg indomethacin mol equivalent. The protocol: The ulcerogenic liability was investigated in albino mice using the standard method. […] The animals were fasted 18 h before drug administration. […] The control group animals were given saline solution only with few drops of Tween 80. […] The gastric mucosa was examined with a magnifying lens (10×) for the presence of lesions and erosions.
1. percentage incidence of ulcer divided by 10;
2. average number of ulcers per stomach; and
3. average severity of ulcers;

Setting [14] is: ATCC25923, 18 h, read-out: Minimum inhibitory concentration (MIC).
Where [15] appears, read: ATCC25923, read-out: Minimum inhibitory concentration (MIC).
Setting [16] is: ATCC19615, 18 h, read-out: Minimum inhibitory concentration (MIC).
[17] abbreviates: ATCC19615, read-out: Minimum inhibitory concentration (MIC).
The mark [18] stands for this setting: ATCC27853, 18 h, read-out: Minimum inhibitory concentration (MIC).
Where [19] appears, read: ATCC27853, read-out: Minimum inhibitory concentration (MIC).

For the molecule `COc1cc(/C=C/C(=O)CC(=O)/C=C/c2ccc(OC(=O)[C@H](C)NC(=O)OC(C)(C)C)c(OC)c2)ccc1OC(=O)[C@H](C)NC(=O)OC(C)(C)C` [Boc-L-Ala-Cur, ((1E,6E)-3,5-dioxohepta-1,6-diene-1,7-diyl)bis(2-methoxy-4,1-phenylene) (2S,2′S)-bis(2-((tert-butoxycarbonyl)amino)propanoate)], the “Stimulation Index (average ± SD)” value in [1] came to 2.71 ± 0.28. For the same molecule, in series [2], the “Potency (%): % inhibition of nitric oxide production relative to lipopolysaccharide-stimulated macrophages” value is given as 22.02%. In series [2], the “Nitric oxide (nitrite) concentration, μM (average ± SD)” value (from here on “Nitric oxide … (average ± SD)”) is 21.30 ± 1.72 µM. Further, the MIC was 0.125 µg/mL in [3] (18 h); 0.176 µM in [3]; 0.125 µg/mL in series [9] (setting [14]); 0.176 µM in series [9] (setting [15]); 0.25 µg/mL in series [10] (setting [16]); 0.352 µM in series [10] (setting [17]). The MIC in [11] (setting [18]) amounted to 1 µg/mL; in [11] (setting [19]), 1.41 µM; in [12] (18 h), 1 µg/mL; in [12], 1.41 µM. Moreover, the IC50 in [4] is over 100 µM; in series [5] it was over 100 µM; in series [6], 25.1 µM; in series [7], over 100 µM; in [8], over 100 µM.

With `COc1cc(/C=C/C(=O)CC(=O)/C=C/c2ccc(OC(=O)[C@H](CCC(N)=O)NC(=O)OC(C)(C)C)c(OC)c2)ccc1OC(=O)[C@H](CCC(N)=O)NC(=O)OC(C)(C)C` [Boc-L-Gln-Cur, ((1E,6E)-3,5-dioxohepta-1,6-diene-1,7-diyl)bis(2-methoxy-4,1-phenylene) (2S,2′S)-bis(5-amino-2-((tert-butoxycarbonyl)amino)-5-oxopentanoate)], in series [1], the “Stimulation Index (average ± SD)” value worked out at 2.14 ± 0.23. Moreover, the “Potency (%): % inhibition of nitric oxide production relative to lipopolysaccharide-stimulated macrophages” value in [2] came out at 22.29%. Further, the “Nitric oxide … (average ± SD)” value in series [2] is 21.22 ± 1.50 µM. The MIC in series [3] (18 h) worked out at 0.125 µg/mL; in [3], 0.152 µM; in series [9] (setting [14]), 0.125 µg/mL; in series [9] (setting [15]) it was 0.152 µM; in series [10] (setting [16]), 0.25 µg/mL; in series [10] (setting [17]) it was 0.303 µM. In addition, the MIC in [11] (setting [18]) is 1 µg/mL; in [11] (setting [19]), 1.21 µM; in [12] (18 h) it was 2 µg/mL; in [12] it was 2.42 µM. For the same molecule, the IC50 in [4] is over 100 µM; in [5], 70.6 µM; in [6], 8.48 µM; in [7], 30.9 µM; in [8], 39.1 µM.

In the case of `CC[C@H](C)[C@H](N)C(=O)Oc1ccc(/C=C/C(=O)CC(=O)/C=C/c2ccc(OC(=O)[C@@H](N)[C@@H](C)CC)c(OC)c2)cc1OC.Cl.Cl` [HCl-L-Ile-Cur, (2S,2′S,3S,3′S)-1,1′-((((1E,6E)-3,5-dioxohepta-1,6-diene-1,7-diyl)bis(2-methoxy-4,1-phenylene))bis(oxy))bis(3-methyl-1-oxopentan-2-aminium) chloride], the “Stimulation Index (average ± SD)” value in series [1] is listed as 1.59 ± 0.17. In addition, the “Potency (%): % inhibition of nitric oxide production relative to lipopolysaccharide-stimulated macrophages” value in series [2] amounted to 35.45%. Further, in series [2], the “Nitric oxide … (average ± SD)” value is 17.63 ± 1.14 µM. Also, the MIC in [3] (18 h) came to 0.125 µg/mL; in series [3] it was 0.187 µM; in series [9] (setting [14]) it was 0.25 µg/mL; in [9] (setting [15]) it was 0.374 µM; in series [10] (setting [16]), 0.5 µg/mL; in [10] (setting [17]) it was 0.749 µM. The MIC in [11] (setting [18]) is 0.25 µg/mL; in series [11] (setting [19]), 0.374 µM; in series [12] (18 h) it was 0.125 µg/mL; in series [12], 0.187 µM. Moreover, the IC50 in [4] is 36.7 µM; in series [5] it was 38.9 µM; in [6] it was 10.2 µM; in [7] it was 20.9 µM; in [8], 34.4 µM.

As to `COc1cc(/C=C/C(=O)CC(=O)/C=C/c2ccc(OC(=O)[C@@H](CCSC)NC(=O)OC(C)(C)C)c(OC)c2)ccc1OC(=O)[C@@H](CCSC)NC(=O)OC(C)(C)C` [Boc-D-Met-Cur, ((1E,6E)-3,5-dioxohepta-1,6-diene-1,7-diyl)bis(2-methoxy-4,1-phenylene) (2R,2′R)-bis(2-((tert-butoxycarbonyl)amino)-4-(methylthio)butanoate)], the “% Incidence of ulcer divided by 10” value in series [13] is reported as 0. Besides, in series [13], the “Average of ulcer number” value is reported as 0. Besides, the “Average severity of ulcer” value in [13] is recorded as 0. The “Number of animals with ulcer” value in series [13] (6 animals per group) was 0/6. The Ulcer index in [13] (sum of the three values) came out at 0. Moreover, in series [1], the “Stimulation Index (average ± SD)” value is 2.53 ± 0.08. For the same molecule, the MIC was 1 µg/mL in series [3] (18 h); 1.2 µM in [3]; 0.25 µg/mL in [9] (setting [14]); 0.301 µM in series [9] (setting [15]); 0.125 µg/mL in series [10] (setting [16]); 0.15 µM in series [10] (setting [17]). Also, the MIC worked out at 0.25 µg/mL in [11] (setting [18]), 0.301 µM in [11] (setting [19]), 0.5 µg/mL in series [12] (18 h) and 0.602 µM in series [12]. Moreover, the IC50 is over 100 µM in series [4]; over 100 µM in series [5]; 22.3 µM in series [6]; over 100 µM in series [7]; over 100 µM in series [8].

Regarding `COc1cc(/C=C/C(=O)CC(=O)/C=C/c2ccc(OC(=O)[C@H](CCC(N)=O)NC(=O)OCc3ccccc3)c(OC)c2)ccc1OC(=O)[C@H](CCC(N)=O)NC(=O)OCc1ccccc1` [Z-L-Gln-Cur, ((1E,6E)-3,5-dioxohepta-1,6-diene-1,7-diyl)bis(2-methoxy-4,1-phenylene) (2S,2′S)-bis(5-amino-2-(((benzyloxy)carbonyl)amino)-5-oxopentanoate)], the “Stimulation Index (average ± SD)” value in series [1] is listed as 2.37 ± 0.16. In addition, the MIC in series [3] (18 h) came out at 0.5 µg/mL; in series [3], 0.56 µM; in series [9] (setting [14]) it was 0.5 µg/mL; in series [9] (setting [15]), 0.56 µM; in series [10] (setting [16]), 0.125 µg/mL; in [10] (setting [17]) it was 0.14 µM. Further, the MIC in [11] (setting [18]) stood at 1 µg/mL; in series [11] (setting [19]) it was 1.12 µM; in series [12] (18 h), 0.5 µg/mL; in [12], 0.56 µM. The IC50 in series [4] is over 100 µM; in [5], over 100 µM; in series [6], 10.2 µM; in series [7], 46.1 µM; in series [8], 90.7 µM.

Turning to `COc1cc(/C=C/C(=O)CC(=O)/C=C/c2ccc(OC(=O)[C@H](Cc3ccccc3)NC(=O)OC(C)(C)C)c(OC)c2)ccc1OC(=O)[C@H](Cc1ccccc1)NC(=O)OC(C)(C)C` [Boc-L-Phe-Cur, ((1E,6E)-3,5-dioxohepta-1,6-diene-1,7-diyl)bis(2-methoxy-4,1-phenylene) (2S,2′S)-bis(2-((tert-butoxycarbonyl)amino)-3-phenylpropanoate)], in series [1], the “Stimulation Index (average ± SD)” value came out at 2.56 ± 0.14. The MIC in series [3] (18 h) amounted to 0.25 µg/mL; in series [3], 0.29 µM; in series [9] (setting [14]), 0.25 µg/mL; in series [9] (setting [15]), 0.29 µM; in series [10] (setting [16]), 0.125 µg/mL; in series [10] (setting [17]), 0.145 µM. Besides, the MIC came out at 1 µg/mL in series [11] (setting [18]), 1.16 µM in series [11] (setting [19]), 1 µg/mL in series [12] (18 h) and 1.16 µM in series [12]. The IC50 in [4], in series [5], in series [6], in series [7] and in series [8] was over 100 µM throughout.
